{
  "source": "ChEMBL document CHEMBL5465560",
  "about": "“Selectivity Literature for EUbOPEN Chemogenomic Library” (2024)",
  "key": {"[1]": {"target": "T1, MAP kinase-activated protein kinase 5 (Homo sapiens) (UniProt Q8IW41)", "T1 sequence (whole entry)": "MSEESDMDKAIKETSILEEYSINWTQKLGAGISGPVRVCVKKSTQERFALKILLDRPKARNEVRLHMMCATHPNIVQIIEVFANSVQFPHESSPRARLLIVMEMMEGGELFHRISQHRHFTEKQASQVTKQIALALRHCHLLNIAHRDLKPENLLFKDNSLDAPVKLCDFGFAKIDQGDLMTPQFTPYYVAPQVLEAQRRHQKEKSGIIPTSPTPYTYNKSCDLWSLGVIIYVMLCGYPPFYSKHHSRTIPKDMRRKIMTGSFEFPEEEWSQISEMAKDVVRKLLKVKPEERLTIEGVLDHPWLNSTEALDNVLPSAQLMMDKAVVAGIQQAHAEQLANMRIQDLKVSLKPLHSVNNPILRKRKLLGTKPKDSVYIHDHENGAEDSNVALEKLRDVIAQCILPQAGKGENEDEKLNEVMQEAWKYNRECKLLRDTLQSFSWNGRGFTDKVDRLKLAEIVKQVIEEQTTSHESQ", "settings": "at 10 µM"}, "[2]": {"target": "Epithelial discoidin domain-containing receptor 1 (Homo sapiens) (UniProt Q08345)", "sequence (Q08345 whole entry, the tested form may be a part)": "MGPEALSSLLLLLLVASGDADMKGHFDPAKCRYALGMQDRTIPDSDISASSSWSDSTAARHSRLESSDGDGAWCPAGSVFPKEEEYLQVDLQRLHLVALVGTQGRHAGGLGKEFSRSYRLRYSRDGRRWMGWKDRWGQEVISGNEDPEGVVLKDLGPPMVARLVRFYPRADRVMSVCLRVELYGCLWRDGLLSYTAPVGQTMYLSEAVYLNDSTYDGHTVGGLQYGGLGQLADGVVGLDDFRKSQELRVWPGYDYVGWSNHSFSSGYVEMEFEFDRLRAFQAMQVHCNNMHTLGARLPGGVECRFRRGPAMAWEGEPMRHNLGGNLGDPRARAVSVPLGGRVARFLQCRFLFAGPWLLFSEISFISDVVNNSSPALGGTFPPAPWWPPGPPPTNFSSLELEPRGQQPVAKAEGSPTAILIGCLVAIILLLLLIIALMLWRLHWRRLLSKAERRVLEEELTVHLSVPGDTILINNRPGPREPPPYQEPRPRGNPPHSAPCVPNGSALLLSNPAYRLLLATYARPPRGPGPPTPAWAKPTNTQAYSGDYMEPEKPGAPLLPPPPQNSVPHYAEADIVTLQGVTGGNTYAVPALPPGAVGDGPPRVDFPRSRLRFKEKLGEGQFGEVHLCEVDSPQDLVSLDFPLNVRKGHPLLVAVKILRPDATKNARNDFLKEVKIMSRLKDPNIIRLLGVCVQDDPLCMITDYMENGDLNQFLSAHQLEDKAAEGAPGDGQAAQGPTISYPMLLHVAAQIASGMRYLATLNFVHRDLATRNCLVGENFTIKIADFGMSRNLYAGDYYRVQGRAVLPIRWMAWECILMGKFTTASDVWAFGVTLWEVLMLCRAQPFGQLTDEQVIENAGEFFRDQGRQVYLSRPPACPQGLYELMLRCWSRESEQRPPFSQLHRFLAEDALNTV", "assay": "Selectivity interaction (KinomeScan (DiscoverX)) EUB0000699a DDR1", "settings": "at 10 µM"}, "[3]": {"target": "Dual specificity protein kinase CLK1 (Homo sapiens, UniProt P49759)", "sequence (P49759 whole entry, looked up)": "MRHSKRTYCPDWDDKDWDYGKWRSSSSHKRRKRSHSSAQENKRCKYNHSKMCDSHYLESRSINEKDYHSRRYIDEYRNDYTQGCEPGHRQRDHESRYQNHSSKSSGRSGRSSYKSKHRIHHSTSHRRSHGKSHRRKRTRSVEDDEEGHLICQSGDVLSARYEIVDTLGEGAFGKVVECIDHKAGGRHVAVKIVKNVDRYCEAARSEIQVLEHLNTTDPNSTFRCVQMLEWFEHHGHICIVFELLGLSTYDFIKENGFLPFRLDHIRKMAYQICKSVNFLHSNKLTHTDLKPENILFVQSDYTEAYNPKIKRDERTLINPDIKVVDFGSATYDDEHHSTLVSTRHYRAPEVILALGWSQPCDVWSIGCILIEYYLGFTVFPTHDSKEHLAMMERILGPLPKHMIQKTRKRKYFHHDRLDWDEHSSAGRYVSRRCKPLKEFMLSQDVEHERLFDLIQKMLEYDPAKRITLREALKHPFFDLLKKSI", "assay": "Selectivity interaction (ProQinase) EUB0000171b CLK1"}, "[4]": {"target": "Tyrosine-protein kinase ABL2 (Homo sapiens, UniProt P42684)", "assay": "Selectivity interaction (KinomeScan (DiscoverX)) EUB0001079a ABL2", "settings": "at 1 µM"}, "[5]": {"target": "T2, Phosphatidylinositol 4,5-bisphosphate 3-kinase catalytic subunit delta isoform (Homo sapiens) (UniProt O00329)", "T2 sequence (whole entry)": "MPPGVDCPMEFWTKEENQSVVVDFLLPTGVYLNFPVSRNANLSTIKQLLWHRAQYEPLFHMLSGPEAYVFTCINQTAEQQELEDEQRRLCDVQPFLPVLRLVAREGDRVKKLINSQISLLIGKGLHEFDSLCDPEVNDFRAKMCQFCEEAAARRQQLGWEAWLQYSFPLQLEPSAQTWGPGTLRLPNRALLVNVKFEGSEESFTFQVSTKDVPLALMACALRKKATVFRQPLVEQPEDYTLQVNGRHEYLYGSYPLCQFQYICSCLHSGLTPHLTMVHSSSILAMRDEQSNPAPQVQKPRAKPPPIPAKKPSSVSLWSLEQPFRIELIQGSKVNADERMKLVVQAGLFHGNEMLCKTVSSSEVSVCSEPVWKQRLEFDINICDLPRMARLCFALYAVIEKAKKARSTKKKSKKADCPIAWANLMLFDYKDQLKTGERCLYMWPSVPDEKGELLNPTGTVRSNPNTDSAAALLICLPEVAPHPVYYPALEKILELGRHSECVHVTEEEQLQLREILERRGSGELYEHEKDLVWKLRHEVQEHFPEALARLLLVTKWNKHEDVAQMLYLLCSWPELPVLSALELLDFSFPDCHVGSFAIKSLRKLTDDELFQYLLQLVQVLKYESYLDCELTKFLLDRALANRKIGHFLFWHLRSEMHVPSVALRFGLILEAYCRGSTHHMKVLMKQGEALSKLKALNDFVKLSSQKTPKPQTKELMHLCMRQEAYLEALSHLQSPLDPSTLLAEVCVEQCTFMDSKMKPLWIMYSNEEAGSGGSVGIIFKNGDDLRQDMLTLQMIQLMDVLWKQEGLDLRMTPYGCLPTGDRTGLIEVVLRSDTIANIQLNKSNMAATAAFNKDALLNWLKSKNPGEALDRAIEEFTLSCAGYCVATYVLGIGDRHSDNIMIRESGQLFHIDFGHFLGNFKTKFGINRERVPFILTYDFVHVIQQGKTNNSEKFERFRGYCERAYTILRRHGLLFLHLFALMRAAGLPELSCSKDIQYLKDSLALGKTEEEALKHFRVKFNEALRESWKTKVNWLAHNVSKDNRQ", "assay": "Selectivity interaction (KinomeScan (DiscoverX)) EUB0000666a PIK3CD", "settings": "at 10 µM"}, "[6]": {"target": "Tyrosine-protein kinase ABL1 (Homo sapiens, UniProt P00519)", "sequence (P00519 whole entry)": "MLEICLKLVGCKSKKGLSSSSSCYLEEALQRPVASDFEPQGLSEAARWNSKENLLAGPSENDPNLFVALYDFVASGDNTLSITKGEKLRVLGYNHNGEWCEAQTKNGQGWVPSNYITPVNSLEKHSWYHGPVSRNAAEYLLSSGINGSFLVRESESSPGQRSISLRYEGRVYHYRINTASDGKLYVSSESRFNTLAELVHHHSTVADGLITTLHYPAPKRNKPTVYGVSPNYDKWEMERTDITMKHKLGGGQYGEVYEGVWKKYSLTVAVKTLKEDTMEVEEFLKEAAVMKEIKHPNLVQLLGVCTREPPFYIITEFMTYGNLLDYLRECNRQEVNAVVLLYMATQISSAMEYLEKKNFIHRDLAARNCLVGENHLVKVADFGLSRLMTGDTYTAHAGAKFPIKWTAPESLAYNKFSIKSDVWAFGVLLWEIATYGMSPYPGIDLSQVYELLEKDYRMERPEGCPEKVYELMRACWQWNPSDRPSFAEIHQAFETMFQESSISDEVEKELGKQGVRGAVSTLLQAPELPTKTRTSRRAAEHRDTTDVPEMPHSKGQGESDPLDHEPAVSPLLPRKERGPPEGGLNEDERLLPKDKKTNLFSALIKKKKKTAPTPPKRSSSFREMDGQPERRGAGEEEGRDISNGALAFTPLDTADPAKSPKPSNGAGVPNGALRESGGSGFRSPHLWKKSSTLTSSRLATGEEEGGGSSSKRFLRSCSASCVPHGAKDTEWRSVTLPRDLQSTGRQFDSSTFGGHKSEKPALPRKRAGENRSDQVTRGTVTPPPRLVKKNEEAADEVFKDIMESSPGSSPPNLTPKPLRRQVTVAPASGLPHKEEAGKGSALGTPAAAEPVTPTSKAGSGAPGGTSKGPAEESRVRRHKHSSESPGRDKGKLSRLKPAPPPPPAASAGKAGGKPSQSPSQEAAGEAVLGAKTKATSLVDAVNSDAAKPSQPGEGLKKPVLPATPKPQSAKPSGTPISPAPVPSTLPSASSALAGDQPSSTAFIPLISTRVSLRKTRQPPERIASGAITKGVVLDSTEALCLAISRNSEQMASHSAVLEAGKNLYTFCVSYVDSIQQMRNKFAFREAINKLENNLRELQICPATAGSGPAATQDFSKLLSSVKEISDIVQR", "assay": "Selectivity interaction (KinomeScan (DiscoverX)) EUB0000666a ABL1", "settings": "at 10 µM"}, "[7]": {"target": "T3, MAP/microtubule affinity-regulating kinase 4 (Homo sapiens) (UniProt Q96L34)", "T3 sequence (whole entry)": "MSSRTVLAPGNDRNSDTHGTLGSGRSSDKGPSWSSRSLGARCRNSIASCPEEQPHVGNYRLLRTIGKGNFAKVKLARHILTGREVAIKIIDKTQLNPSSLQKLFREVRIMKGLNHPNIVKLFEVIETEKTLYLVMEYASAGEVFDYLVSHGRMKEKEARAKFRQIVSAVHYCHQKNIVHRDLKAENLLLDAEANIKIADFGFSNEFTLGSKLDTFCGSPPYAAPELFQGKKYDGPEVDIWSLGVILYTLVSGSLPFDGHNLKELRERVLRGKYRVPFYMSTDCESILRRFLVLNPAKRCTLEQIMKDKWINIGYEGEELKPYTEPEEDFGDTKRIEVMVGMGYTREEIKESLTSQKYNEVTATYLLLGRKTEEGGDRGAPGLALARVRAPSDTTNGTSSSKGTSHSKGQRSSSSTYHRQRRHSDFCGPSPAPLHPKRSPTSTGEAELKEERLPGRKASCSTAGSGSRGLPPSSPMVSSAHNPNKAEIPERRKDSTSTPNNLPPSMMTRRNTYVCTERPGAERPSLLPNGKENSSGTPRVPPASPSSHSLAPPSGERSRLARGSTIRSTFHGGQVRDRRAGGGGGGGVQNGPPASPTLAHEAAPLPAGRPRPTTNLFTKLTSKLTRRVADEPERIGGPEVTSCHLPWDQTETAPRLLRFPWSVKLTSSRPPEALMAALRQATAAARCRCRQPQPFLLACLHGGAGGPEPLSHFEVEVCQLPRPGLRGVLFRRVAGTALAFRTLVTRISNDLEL", "assay": "Selectivity interaction (KinomeScan (DiscoverX)) EUB0000607a MARK4", "settings": "at 10 µM"}, "[8]": {"tested_on": "Phosphatidylinositol 4,5-bisphosphate 3-kinase catalytic subunit alpha isoform (Homo sapiens), P42336 [H1047Y]", "sequence (P42336 whole entry H1047Y, canonical isoform)": "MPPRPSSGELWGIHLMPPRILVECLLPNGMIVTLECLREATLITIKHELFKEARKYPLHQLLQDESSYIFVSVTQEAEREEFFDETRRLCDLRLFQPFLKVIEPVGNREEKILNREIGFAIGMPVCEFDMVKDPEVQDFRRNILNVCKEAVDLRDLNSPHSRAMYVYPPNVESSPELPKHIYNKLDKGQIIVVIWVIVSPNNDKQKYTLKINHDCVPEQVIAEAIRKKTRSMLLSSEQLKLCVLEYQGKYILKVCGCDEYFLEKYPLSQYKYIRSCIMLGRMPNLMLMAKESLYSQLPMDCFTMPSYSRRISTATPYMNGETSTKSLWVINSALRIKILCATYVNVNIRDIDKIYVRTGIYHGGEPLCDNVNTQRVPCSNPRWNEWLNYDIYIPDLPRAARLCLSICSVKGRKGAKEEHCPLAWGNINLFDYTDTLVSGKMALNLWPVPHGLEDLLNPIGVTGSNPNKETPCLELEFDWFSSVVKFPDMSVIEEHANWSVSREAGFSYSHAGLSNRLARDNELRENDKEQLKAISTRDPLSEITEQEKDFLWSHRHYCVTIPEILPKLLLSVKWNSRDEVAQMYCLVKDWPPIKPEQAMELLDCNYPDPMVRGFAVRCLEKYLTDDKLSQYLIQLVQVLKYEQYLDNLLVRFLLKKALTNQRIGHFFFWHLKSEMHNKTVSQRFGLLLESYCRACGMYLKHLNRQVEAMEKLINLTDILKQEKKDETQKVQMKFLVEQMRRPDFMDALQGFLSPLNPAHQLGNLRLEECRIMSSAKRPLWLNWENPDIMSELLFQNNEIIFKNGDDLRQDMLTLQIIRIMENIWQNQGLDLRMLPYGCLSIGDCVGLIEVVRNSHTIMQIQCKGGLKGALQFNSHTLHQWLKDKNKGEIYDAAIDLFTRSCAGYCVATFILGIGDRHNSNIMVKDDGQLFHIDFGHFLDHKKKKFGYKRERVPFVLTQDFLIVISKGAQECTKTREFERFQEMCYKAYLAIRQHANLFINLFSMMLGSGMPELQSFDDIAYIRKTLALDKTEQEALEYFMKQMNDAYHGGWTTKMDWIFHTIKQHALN", "settings": "at 10 µM"}, "[9]": {"tested_on": "Hepatocyte growth factor receptor (Homo sapiens), P08581 [Y1235D]", "settings": "at 10 µM"}, "[10]": {"target": "Serine/threonine-protein kinase SIK1 (Homo sapiens) (UniProt P57059)", "sequence (P57059 whole entry)": "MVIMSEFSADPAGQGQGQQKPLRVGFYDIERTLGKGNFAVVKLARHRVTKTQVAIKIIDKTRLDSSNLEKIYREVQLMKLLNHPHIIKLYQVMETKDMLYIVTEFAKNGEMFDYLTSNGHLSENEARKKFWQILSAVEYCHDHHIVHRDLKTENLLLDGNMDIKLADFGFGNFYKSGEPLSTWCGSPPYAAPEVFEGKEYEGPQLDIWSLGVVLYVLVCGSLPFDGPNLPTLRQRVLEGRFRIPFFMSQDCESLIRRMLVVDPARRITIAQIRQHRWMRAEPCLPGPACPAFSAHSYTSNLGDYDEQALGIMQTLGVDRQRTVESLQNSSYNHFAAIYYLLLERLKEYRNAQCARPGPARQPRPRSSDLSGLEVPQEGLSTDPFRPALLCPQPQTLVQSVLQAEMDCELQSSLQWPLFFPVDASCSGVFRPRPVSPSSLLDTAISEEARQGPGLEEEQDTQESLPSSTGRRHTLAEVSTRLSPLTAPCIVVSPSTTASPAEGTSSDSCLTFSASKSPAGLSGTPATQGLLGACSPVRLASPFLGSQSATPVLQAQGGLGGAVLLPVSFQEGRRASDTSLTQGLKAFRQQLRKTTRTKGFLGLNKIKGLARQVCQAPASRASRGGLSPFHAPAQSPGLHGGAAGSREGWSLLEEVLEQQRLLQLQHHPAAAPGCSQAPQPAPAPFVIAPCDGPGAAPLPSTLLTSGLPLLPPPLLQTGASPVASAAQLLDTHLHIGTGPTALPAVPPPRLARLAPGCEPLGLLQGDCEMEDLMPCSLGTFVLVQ", "assay": "Selectivity interaction (Ambit KINOMEscan and KiNATiv profiling in Jurkat cells) EUB0000090b SIK1", "type": "cell-based", "settings": "at 1 µM"}, "[11]": {"target": "Ribosomal protein S6 kinase beta-1 (Homo sapiens, UniProt P23443)", "sequence (P23443 whole entry, looked up)": "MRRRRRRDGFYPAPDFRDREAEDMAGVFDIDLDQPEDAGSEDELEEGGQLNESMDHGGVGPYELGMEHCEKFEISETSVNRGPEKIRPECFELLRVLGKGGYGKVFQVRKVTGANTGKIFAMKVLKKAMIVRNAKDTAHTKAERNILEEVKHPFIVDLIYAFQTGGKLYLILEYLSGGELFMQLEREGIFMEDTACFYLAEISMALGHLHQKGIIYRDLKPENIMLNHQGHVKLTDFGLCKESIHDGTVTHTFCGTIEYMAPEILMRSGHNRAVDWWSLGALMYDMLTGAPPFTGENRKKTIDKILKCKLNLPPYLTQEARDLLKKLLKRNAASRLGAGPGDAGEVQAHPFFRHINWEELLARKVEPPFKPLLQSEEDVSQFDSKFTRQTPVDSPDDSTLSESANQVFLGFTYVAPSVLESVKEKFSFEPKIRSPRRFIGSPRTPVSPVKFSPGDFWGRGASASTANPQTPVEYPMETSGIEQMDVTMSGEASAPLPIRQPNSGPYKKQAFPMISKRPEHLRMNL", "assay": "Selectivity interaction (ActivX KiNativ screen (ex vivo kinase selectivity in human PBMCs)) EUB0001619a RPS6KB1", "type": "cell-based", "settings": "PBMC, at 1 µM"}},
  "data": [
    {"compound": "CCN(CC)CCCCNc1ncc2cc(-c3cc(OC)cc(OC)c3)c(NC(=O)NC(C)(C)C)nc2n1", "values": [
      {"measurement": "% of control", "setting": "[1]", "result": 100, "unit": "%"},
      {"measurement": "% of control", "setting": "[2]", "result": 1.1, "unit": "%"}
    ]},
    {"compound": "C=CC(=O)Nc1cccc(C(=O)Nc2ccc(Nc3cc(-c4[nH]c(SC)nc4C)ccn3)cc2)c1", "values": [
      {"measurement": "% of control", "setting": "[3]; at 1 µM", "result": 67, "unit": "%"},
      {"measurement": "% of control", "setting": "[3]; at 5 µM", "result": 37, "unit": "%"}
    ]},
    {"compound": "Nc1cnc(N2CCc3cc(S(=O)(=O)Nc4c(F)cc(Cl)cc4F)cc(N4CCCC4=O)c32)nc1", "note": "[TP-020n]", "values": [
      {"measurement": "% of control", "setting": "[4]", "result": 95, "unit": "%"}
    ]},
    {"compound": "O=C(NOC[C@H](O)CO)c1ccc(F)c(F)c1Nc1ccc(I)cc1F", "values": [
      {"measurement": "% of control", "setting": "[5]", "result": 40, "unit": "%"},
      {"measurement": "% of control", "setting": "[6]", "result": 97, "unit": "%"}
    ]},
    {"compound": "CNC(=O)Nc1ccc(-c2nc(N3CC4CCC(C3)O4)c3cnn(C4CCC5(CC4)OCCO5)c3n2)cc1", "values": [
      {"measurement": "% of control", "setting": "[7]", "result": 94, "unit": "%"}
    ]},
    {"compound": "COCC(=O)NC/C=C/c1ccc2ncnc(Nc3ccc(Oc4ccc(C)nc4)c(C)c3)c2c1", "note": "[CP-724714]", "values": [
      {"measurement": "% of control", "setting": "[8]", "result": 47, "unit": "%"},
      {"measurement": "% of control", "setting": "[9]", "result": 81, "unit": "%"}
    ]},
    {"compound": "CN(C)C/C=C/C(=O)Nc1ccc(C(=O)N2CCCC(Nc3ncc(Cl)c(-c4c[nH]c5ccccc45)n3)C2)cc1", "note": "(configuration not stated)", "values": [
      {"measurement": "% of control", "setting": "[10]", "result": 98, "unit": "%"}
    ]},
    {"compound": "N#Cc1cccc(-c2c[nH]c3ncnc(N4CCOCC4)c23)c1", "values": [
      {"measurement": "% of inhibition", "setting": "[11]", "result": -10, "unit": "%"}
    ]}
  ]
}
